Data from patent publication US7550604B2, “Pyrroloterpenes and use of the same as antimicrobial and anticancer agents” (Nereus Pharmaceuticals, Inc., priority 2004, dated 2009).

Columns and labels:
Assay type in all cases: cell-based
HT-29 cells = assay: Growth inhibition of human colorectal adenocarcinoma HT-29 cells (resazurin)
Protocol: HT-29 (ATCC; HTB-38) a human colorectal adenocarcinoma cell line was maintained in complete McCoy's 5A medium (McCoy's 5A medium supplemented with 10% (v/v) Fetal bovine serum, 2 mM glutamine, 10 mM HEPES, 1% (v/v) non-essential amino acids (NEAA), 1 mM sodium pyruvate and Penicillin/Streptomycin at 100 IU/ml and 100 μg/ml respectively). The cells were cultured in an incubator at 37° C. in 5% CO2 and 95% humidified air. For cell growth inhibition assays, HT-29 cells were seeded at 5×10^3 cells/well in 90 μl complete media into Corning 3904 black-walled, clear-bottom tissue culture plates and the plates were incubated overnight to allow cells to establish and enter log phase growth. Two independent assays were performed using 200 mM or 400 mM stock solutions prepared in 100% DMSO. 10× concentrated serial dilutions of the compound of Formula (V) were prepared in appropriate culture medium. Ten μl volumes of the serial dilutions were added to the test wells in triplicate resulting in final concentrations ranging from 500 μM to 158 nM or 1 mM to 7.81 μM. The plates were returned to the incubator for 48 hours. The final concentration of DMSO was 0.25% in all samples. […] Since living cells metabolize Resazurin, the fluorescence of the reduction product of Resazurin was measured using a Fusion microplate fluorometer (Packard Bioscience) with λex =535 nm and λem=[…] filters. […]

B16-F10 cells = assay: Growth inhibition of murine melanoma B16-F10 cells (resazurin)
Protocol: B16-F10 (ATCC; CRL-6475) a murine melanoma cell line was maintained in complete Dulbecco's Modification of Eagle's Medium (DMEM) (DMEM supplemented with 10% (v/v) Fetal bovine serum, 2 mM glutamine, 10 mM HEPES and Penicillin/Streptomycin at 100 IU/ml and 100 μg/ml respectively). The cells were cultured in an incubator at 37° C. in 5% CO2 and 95% humidified air. For cell growth inhibition assays, B16-F10 cells were seeded at 1.25×10^3 cells/well in 90 μl complete media into Corning 3904 black-walled, clear-bottom tissue culture plates and the plates were incubated overnight to allow cells to establish and enter log phase growth. Two independent assays were performed using 200 mM or 400 mM stock solutions prepared in 100% DMSO. 10× concentrated serial dilutions of the compound of Formula (V) were prepared in appropriate culture medium. Ten μl volumes of the serial dilutions were added to the test wells in triplicate resulting in final concentrations ranging from 500 μM to 158 nM or 1 mM to 7.81 μM. The plates were returned to the incubator for 48 hours. The final concentration of DMSO was 0.25% in all samples. […] Since living cells metabolize Resazurin, the fluorescence of the reduction product of Resazurin was measured using a Fusion microplate fluorometer (Packard Bioscience) with λex =535 nm and λem=590 nm filters. […]

Bacillus cereus 14579 = assay: Antimicrobial MIC assay (NCCLS M7-A5)
Protocol: (§1) Minimum inhibitory concentrations (MICs) were determined according to the National Committee for Clinical Laboratory Standards (NCCLS) susceptibility test guideline M7-A5 (Ferraro, M. 2001 Methods for Dilution Antimicrobial Susceptibility Tests for Bacteria that Grow Aerobically; Approved Standard (NCCLS). National Committee for Clinical Laboratory Standards (NCCLS), Villanova, which is incorporated herein by reference in its entirety).

Candida albicans = assay: Antimicrobial MIC assay (NCCLS M7-A5)
Protocol: as §1

Escherichia coli imp = assay: Antimicrobial MIC assay (NCCLS M7-A5)
Protocol: as §1

[1] = tested on: Staphylococcus aureus - MSSA; assay: Antimicrobial MIC assay (NCCLS M7-A5)
Protocol: as §1

`CC(=C/C(=O)c1ccc[nH]1)/C=C/C(O)C1(C)CCC(C(C)(C)O)O1` (stereo not shown) [Formula (V)] was tested, and the “inhibition of growth of HT-29 tumor cells (in words)” value (HT-29 cells; HT-29) was “able to inhibit the growth”, the EC50 (HT-29 cells; Homo sapiens, HT-29, 48 hours drug exposure, resazurin fluorescence, read-out: EC50 against HT-29 cells) was 286 µM and the “inhibition of growth of B16-F10 tumor cells (in words)” value (B16-F10 cells; B16-F10) was “able to inhibit the growth”. The EC50 (B16-F10 cells; Mus musculus, B16-F10, 48 hours drug exposure, resazurin fluorescence, read-out: EC50 against B16-F10 cells) was 260 µM, the MIC (Bacillus cereus 14579; Bacillus cereus 14579) was 72 µg/mL and the “anti-bacterial activity versus gram positive microorganisms (in words)” value (Bacillus cereus 14579; gram positive: Bacillus cereus 14579) was “possess anti-bacterial activity”. For the same molecule, the MIC (Candida albicans) was > 128 µg/mL, the MIC (Escherichia coli imp) was 128 µg/mL and the MIC ([1]; Staphylococcus aureus - MSSA) was 64 µg/mL. The “anti-bacterial activity versus gram positive microorganisms (in words)” value ([1]; gram positive: Staphylococcus aureus - MSSA) was “possess anti-bacterial activity”.
